Where two headings read alike, the source gives them in different places.

Consider 14 compounds from article PMC10572347, “Structure–Activity Relationships and Antiplasmodial Potencies of Novel 3,4-Disubstituted 1,2,5-Oxadiazoles” (International Journal of Molecular Sciences, 2023).

The test system of data set [1] is P. falciparum NF54. The data set can be described thus: In vitro microplate assay against P. falciparum (3H-hypoxanthine incorporation). The format is cell-based, Plasmodium falciparum. As to conditions: for S.I. = IC50 (Cyt.)/IC50 (P.f.NF54): L-6 cells vs P.f. NF54. As for the experimental part: In vitro activity against the erythrocytic stages of P. falciparum was determined using a ^3H-hypoxanthine incorporation assay, using the drug sensitive NF54 strain [37]. […] The 96-well plates were incubated in a humidified atmosphere at 37 °C, 4% CO2, 3% O2 and 93% N2. After 48 h, 0.05 mL of ^3H-hypoxanthine (=0.5 µCi) was added to each well of the plate. The plates were incubated for a further 24 h under the same conditions. The plates were then harvested with a Betaplate cell harvester (Wallac, Zurich, Switzerland). The red blood cells were transferred onto a glass fiber filter and washed with distilled water. The dried filters were inserted into a plastic foil with 10 mL of scintillation fluid and counted in a Betaplate liquid scintillation counter (Wallac, Zurich, Switzerland). The IC50 values were calculated from sigmoidal inhibition curves by linear regression using Microsoft Excel. Chloroquine (Sigma C6628) was used as control.

The subject of data set [2] is L-6 cells. The data set can be described thus: In vitro cytotoxicity with L-6 cells (resazurin). The class given is cell-based, rat. The protocol: (§1) Serial drug dilutions of 11 3-fold dilution steps covering a range from 100 to 0.002 μg/mL were prepared. After 70 h of incubation, the plates were inspected under an inverted microscope to assure the growth of the controls and sterile conditions. […] The plates were read with a Spectramax Gemini XS microplate fluorometer (Molecular Devices Cooperation, Sunnyvale, CA, USA) using an excitation wavelength of 536 nm and an emission wavelength of 588 nm. The IC50 values were calculated by linear regression from the sigmoidal dose inhibition curves using SoftmaxPro software Version 8.2.1 (Molecular Devices Cooperation, Sunnyvale, CA, USA). Podophyllotoxin (Sigma P4405) was used as control.
On the technique in general: Alamar Blue is a resazurin reagent that responds to reducing activity.

In the next data set the target is CYP3A4 (Homo sapiens, UniProt P08684). The data set can be described thus: Cytochrome P450 3A4 inhibition assay (P450-Glo, Luciferin-IPA). The following applies: recombinant human CYP3A4 Supersomes (+ oxidoreductase + b5), pH 7.4, probe Luciferin-IPA. The protocol:
The CYP3A4 inhibition assay was performed using 96-well white plates (Greiner Bio-One) at a pH of 7.4. […] Stock solutions were further diluted to a final concentration of 20 µM using water (HPLC grade). The luciferin IPA stock solution (3 mM) was diluted to a final concentration of 0.3 mM using water (HPLC grade). The CYP3A4 reaction mixture was prepared by mixing water (HPLC grade) with potassium phosphate buffer (1 M), luciferin IPA (0.3 mM) and CYP3A4 membrane (1 pmol/µL). The control reaction mixture was prepared using water (HPLC grade), potassium phosphate buffer (1 M), luciferin IPA (0.3 mM) and membrane without CYP activity (1 pmol/µL). Solutions A and B of the NADPH regeneration system were mixed and HPLC grade water was added. The reconstituted luciferin detection reagent was prepared by mixing the reconstituted buffer with esterase with the luciferin detection reagent. Then, solutions of test compounds and standard were added to the wells of the 96-well white plate; each was tested in triplicate. The CYP3A4 reaction mixture was added to each well and the plate was incubated for 10 min at room temperature. After that, the NADPH regeneration system was added, inducing the reaction followed by an incubation time of 10 min at ambient temperature. By adding the reconstituted luciferin detection reagent, the reaction was terminated and a luminescent signal was formed. Luminescence was measured by a SpectraMax M3 UV plate reader (Molecular Devices). The relative light units (RLU) were received from a calibration curve with beetle luciferin. […] The CYP3A4 inhibition (%) was calculated from the RLU.

The test system of data set [3] is P. falciparum NF54. Details: method as in PMID 33925485. The following applies: formerly prepared compounds 1–5, cited from earlier work; for IC50: chloroquine-sensitive strain NF54, read-out: P.f. NF54 IC50.
Data set [4] deals with L-6 cells. Details: method as in PMID 33925485. The following applies: formerly prepared compounds 1–5; read-out: Cytotoxicity L-6 Cells IC50; cited from earlier work.
Data set [5] in a line: In vitro cytotoxicity with L-6 cells (resazurin). The format is cell-based, rat. As to conditions: rat. The protocol: as §1
The mark [6] stands for this setting: rat skeletal myofibroblasts, average of four determinations, read-out: Cytotoxicity L-6 Cells IC50.
Setting [7] is: Plasmodium falciparum, NF54, chloroquine-sensitive strain NF54, average of four determinations, read-out: P.f. NF54 IC50.

CYP3A4, sequence (P08684 2-503 limits assumed): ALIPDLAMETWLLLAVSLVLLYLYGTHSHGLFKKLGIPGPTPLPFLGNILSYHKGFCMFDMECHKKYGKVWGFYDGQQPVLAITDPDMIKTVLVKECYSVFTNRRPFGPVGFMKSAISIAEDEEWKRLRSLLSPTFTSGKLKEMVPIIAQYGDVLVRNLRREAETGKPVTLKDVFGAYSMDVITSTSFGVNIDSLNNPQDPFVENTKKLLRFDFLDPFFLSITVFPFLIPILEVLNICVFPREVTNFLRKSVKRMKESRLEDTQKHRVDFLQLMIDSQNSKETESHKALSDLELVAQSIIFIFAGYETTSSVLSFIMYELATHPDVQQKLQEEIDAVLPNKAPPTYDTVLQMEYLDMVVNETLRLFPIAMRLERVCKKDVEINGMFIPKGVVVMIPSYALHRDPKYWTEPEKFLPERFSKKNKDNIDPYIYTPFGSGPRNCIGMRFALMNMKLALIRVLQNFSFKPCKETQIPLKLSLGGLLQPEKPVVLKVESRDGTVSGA

`CCN(CC)CCCC(C)Nc1ccnc2cc(Cl)ccc12` (stereo not shown) [CQ, chloroquine, reference compound]: the “S.I. = IC50 (Cyt.)/IC50 (P.f.NF54)” value with P. falciparum NF54 [1] is recorded as 9672. The IC50 (as a rule, the concentration at which inhibition is half-maximal) amounted to 0.009 µM in the data set on P. falciparum NF54 [1] (Plasmodium falciparum, NF54, read-out: P.f. NF54 IC50) and 90.9 µM in the data set with L-6 cells [2] (setting [6]).
Turning to `CCOc1ccc(-c2nonc2NC(=O)c2cccc(C)c2)cc1OCC` [Compound 1, reference compound], on CYP3A4, the inhibition (in general, the relative decrease from the control value, in per cent) at 10 min, 20 µM stood at 45%. In the data set on P. falciparum NF54 [3], the IC50 is 0.011 µM and the “S.I. = IC50 (Cyt.)/IC50 (P.f.NF54)” value is given as 14,483. In addition, the IC50 in the data set on L-6 cells [4] was 159 µM.
Regarding `CCOc1ccc(-c2nonc2NC(=O)c2ccccc2)cc1OCC` [Compound 2], in the data set with P. falciparum NF54 [3], the concentration for half-maximal inhibition (IC50) is 0.076 µM and the “S.I. = IC50 (Cyt.)/IC50 (P.f.NF54)” value is reported as 1463. Further, in the data set on L-6 cells [4], the 50% inhibitory concentration (IC50) was 111 µM.
`CCOc1ccc(-c2nonc2NC(=O)c2cccc(F)c2)cc1OCC` [Compound 3]: in the data set with P. falciparum NF54 [3], the IC50 is 0.049 µM and the “S.I. = IC50 (Cyt.)/IC50 (P.f.NF54)” value is reported as 839.6. Further, in the data set on L-6 cells [4], the concentration for half-maximal inhibition (IC50) is 41.1 µM.
Consider `CCOc1ccc(-c2nonc2NC(=O)c2cccc(C(F)(F)F)c2)cc1OCC` [Compound 4], for which, in the data set on P. falciparum NF54 [3], the concentration for half-maximal inhibition (IC50) is 0.019 µM and the “S.I. = IC50 (Cyt.)/IC50 (P.f.NF54)” value is listed as 524.6. For the same compound, the IC50 in the data set with L-6 cells [4] was 9.97 µM.
On to `CCOc1ccc(-c2nonc2NC(=O)c2ccc(OC)c(Cl)c2)cc1OCC` [Compound 5], for which, in the data set on P. falciparum NF54 [3], the IC50 was 0.014 µM and the “S.I. = IC50 (Cyt.)/IC50 (P.f.NF54)” value is 1431. The IC50 in the data set with L-6 cells [4] was 20 µM.
Take `O=C(Nc1nonc1-c1cccc([N+](=O)[O-])c1)c1cccc(F)c1` [Compound 43, 3-Fluoro-N-[4-(3-nitrophenyl)-1,2,5-oxadiazol-3-yl]benzamide]: the melting point – broadly, the temperature of the solid-liquid transition – was 174 °C. Besides, in the data set on P. falciparum NF54 [1], the “S.I. = IC50 (Cyt.)/IC50 (P.f.NF54)” value was 0.104. The 50% inhibitory concentration (IC50) in the data set on P. falciparum NF54 [1] (setting [7]) was found to be 26.7 µM. The 50% inhibitory concentration (IC50) at 72 h in data set [5] was determined as 2.77 µM. Also, on CYP3A4, the inhibition at 10 min, 20 µM came to 79%.
On to `O=C(Nc1nonc1-c1ccc(F)cc1)c1cccc(F)c1` [Compound 45, 3-Fluoro-N-[4-(4-fluorophenyl)-1,2,5-oxadiazol-3-yl]benzamide], for which the melting point turned out to be 169 °C. Further, in the data set with P. falciparum NF54 [1], the “S.I. = IC50 (Cyt.)/IC50 (P.f.NF54)” value came to 1.000. Moreover, the 50% inhibitory concentration (IC50) in the data set with P. falciparum NF54 [1] (setting [7]) came to 11.2 µM. The compound further gave a half-maximal inhibitory concentration (IC50) at 72 h in data set [5] of 11.2 µM. The inhibition at 10 min, 20 µM on CYP3A4 came out at 60%.
For the compound `Cc1cccc(C(=O)Nc2nonc2-c2ccc(Cl)cc2)c1` [Compound 47, N-[4-(4-Chlorophenyl)-1,2,5-oxadiazol-3-yl]-3-methylbenzamide], the melting point stood at 165 °C. The “S.I. = IC50 (Cyt.)/IC50 (P.f.NF54)” value in the data set with P. falciparum NF54 [1] was 15.54. The IC50 in the data set with P. falciparum NF54 [1] (setting [7]) stood at 8.73 µM. Also, the IC50 at 72 h in data set [5] was determined as 136 µM. The inhibition at 10 min, 20 µM on CYP3A4 was 57%.
`CCOc1cc(-c2nonc2NC(=O)c2cccc(C)c2)ccc1OC` [Compound 51, N-[4-(3-Ethoxy-4-methoxyphenyl)-1,2,5-oxadiazol-3-yl]-3-methylbenzamide]: the melting point came to 280 °C. Besides, the “S.I. = IC50 (Cyt.)/IC50 (P.f.NF54)” value in the data set on P. falciparum NF54 [1] is 1526. Besides, the 50% inhibitory concentration (IC50) in the data set with P. falciparum NF54 [1] (setting [7]) is 0.034 µM. In data set [5], this compound had an IC50 at 72 h of 51.9 µM. For the same compound, on CYP3A4, the inhibition at 10 min, 20 µM came out at 66%.
The compound `CCOc1ccc(-c2nonc2NC(=O)c2cccc(C)c2)cc1OC` [Compound 52, N-[4-(4-Ethoxy-3-methoxyphenyl)-1,2,5-oxadiazol-3-yl]-3-methylbenzamide] returned a melting point of 260 °C. For the same compound, the “S.I. = IC50 (Cyt.)/IC50 (P.f.NF54)” value in the data set with P. falciparum NF54 [1] came to 86.47. For the same compound, the IC50 with P. falciparum NF54 [1] (setting [7]) is 0.275 µM. The compound further gave an IC50 at 72 h in data set [5] of 23.8 µM. For the same compound, at CYP3A4, the inhibition at 10 min, 20 µM turned out to be 52%.
Compound `Cc1cccc(C(=O)Nc2nonc2-c2cccc(N)c2)c1` [Compound 61, N-[4-(3-Aminophenyl)-1,2,5-oxadiazol-3-yl]-3-methylbenzamide] showed a melting point of 172 °C. Also, the “S.I. = IC50 (Cyt.)/IC50 (P.f.NF54)” value in the data set on P. falciparum NF54 [1] was 6.182. Further, the 50% inhibitory concentration (IC50) with P. falciparum NF54 [1] (setting [7]) was 30.2 µM. The same compound displayed a concentration for half-maximal inhibition (IC50) at 72 h in data set [5] of 186 µM. Moreover, at CYP3A4, the inhibition at 10 min, 20 µM was 99%.
Turning to `COc1cc([C@@H]2c3cc4c(cc3[C@H](O)[C@H]3COC(=O)[C@H]23)OCO4)cc(OC)c1OC` [POD, podophyllotoxin, reference compound], the IC50 in the data set with L-6 cells [2] (setting [6]) was 0.012 µM.
For the compound “N-[4-(4-Fluorophenyl)-3-(trifluoromethyl)-1,2,5-oxadiazol-3-yl]benzamide [Compound 50]”, the concentration for half-maximal inhibition (IC50) worked out at 8.68 µM in the data set with P. falciparum NF54 [1] (chloroquine-sensitive strain NF54, average of four determinations, read-out: P.f. NF54 IC50) and 7.4 µM in the data set with L-6 cells [2].
